Assay results: US20060110401A1, “Mixture of peptides from c and ns3 proteins of the hepatitis c virus and applications thereof” (priority 2002, published 2006)
pIC50: −log10 of the molar value. Like-named read-outs stand apart in the source and are kept apart here. Residues, ends and D or L forms follow the SMILES beside them.

Legend:
[1] = molecular target: T1, HLA-DR1 (DRB1*0101) (Homo sapiens, UniProt P01903+P01911, A100R/D57E/F55L/F60I/F76Y/I96L/L162R/M171V/P40L/Q125E/R42F/V115G/Y59C); assay: biochemical; format: binding; details: for pIC50: DRB1*0101
T1 construct: endogenous in cells; host or cells: homozygous EBV-transformed human B lymphocyte lines; immunopurified with antibody L243

[2] = tested on: splenocytes from mice transgenic for the human HLA-DR1 molecules; assay: Proliferation assay with splenocytes of immunized HLA-DR1 transgenic mice; format: in vivo; details: 25 μg of single peptide in montanide, subcutaneous, two injections; restimulation 5 μg/ml; FIG. 4A
Protocol: The ability of the peptides having good affinity for the HLA II molecules, as defined above, to induce an immune response was evaluated by means of an in vitro proliferation assay in mice transgenic for HLA-DR1 molecules (Wilkinson et al., Infect. Immunity, 1999, 67, 1501-; Rosloniec et al., J. Exp. Med., 1997, 185, 1113-), pre-immunized with these peptides.
15 days later, a second injection was given under the same conditions. Ten days after the second injection, the animals were sacrificed and their spleen was removed. The splenocytes were cultured in HL-1 medium (Biowhittaker) supplemented with 1% of mouse serum, in the presence of 5 μg/ml of each of the peptides used for the injection, or in the absence of peptide. After 4 days of culture, 1 μCi of tritiated thymidine (Amersham, Life Technologies) was added for 16 h. The tritiated thymidine incorporation was then measured using a beta-counter (Microbeta 1450, Perkin Elmer). The results are expressed as a proliferation index (number of CPM in the presence of peptide/number of CPM in the absence of peptide).

[3] = tested on: DR3; assay: DR3
Text: (§1) Table printed on a drawing sheet, Figure 2
Where the first naming reader finds the target: head: DR3

[4] = tested on: DR4; assay: DR4
[5] = tested on: DR7; assay: DR7
[6] = tested on: DR13; assay: DR13
Text: as §1
Where the first naming reader finds the target: head: DR13

[7] = tested on: DR15; assay: DR15
[8] = tested on: DRB3; assay: DRB3
[9] = tested on: DRB4; assay: DRB4
Text: as §1
Where the first naming reader finds the target: head: DRB4

[10] = tested on: DRB5; assay: DRB5
[11] = tested on: DR11; assay: DR11
Text: as §1
(§2) Where the first naming reader finds the target: head: DR11

[12] = tested on: DR1; assay: DR1
Text: (§3) Table printed on a drawing sheet, Figure 3
(§4) The patent's description of the figure: FIG. 3 illustrates the binding activity, with respect to the HLA II molecules that are predominant in the Caucasian population, of a second series of peptides of the C and NS3 proteins, derived from the first series. The values correspond to the IC50 values, expressed in nM.
(§5) First copying reader's note: The sheet prints no unit; blank spacer lines between peptide groups are left out, and the Nb head is printed slightly left of its column.; the cell N1056-1070 / DR15 is printed empty.; the cell N1056-1070 / DR15 is printed empty.
Where the first naming reader finds the target: head: DR1

[13] = tested on: DR4; assay: DR4; remark: listed apart in the source
Text: as §3, §4, §5
Where the first naming reader finds the target: head: DR4

[14] = tested on: DR7; assay: DR7; remark: listed apart in the source
Text: as §3, §4, §5
Where the first naming reader finds the target: head: DR7

[15] = tested on: DRB5; assay: DRB5; remark: listed apart in the source
Text: as §3, §4, §5
Where the first naming reader finds the target: head: DRB5

[16] = tested on: DP401; assay: DP401
Text: as §3, §4, §5
Where the first naming reader finds the target: head: DP401

[17] = tested on: DR11; assay: DR11; remark: listed apart in the source
Text: as §3, §4, §5, §2

[18] = tested on: DR15; assay: DR15; remark: listed apart in the source
Text: as §3, §4, §5
Where the first naming reader finds the target: head: DR15

[19] = molecular target: T2, HLA-DR4 (DRB1*0401) (Homo sapiens, UniProt P01903+P01911, A100K/A169T/F76Y/I96L/K127E/L162R/M171V/N62H/P40V/Q125Y/R42H/S133A/S149N/S66Y/V115G/V209L/W38E); assay: biochemical; format: binding; details: read-out: binds with good affinity to DR4
T2 construct: endogenous in cells; host or cells: homozygous EBV-transformed human B lymphocyte lines; immunopurified with antibody L243

[20] = molecular target: HLA-DR7 (DRB1*0701) (Homo sapiens, UniProt P01903+P01911, A100R/A102G/A103Q/D57E/D86V/E43K/F76Y/K127E/L162R/M171V/P40G/Q125H/Q99D/R33Q/R42Y/R54Q/S133A/S66F/T210M/V115G/Y107V/Y59L/Y89S); assay: biochemical; format: binding; details: read-out: binds with good affinity to DR7
[21] = molecular target: HLA-DR11 (DRB1*1101) (Homo sapiens, UniProt P01903+P01911, A100R/A169T/A87E/I96F/K41T/L162R/M171V/P40S/Q125H/Q178H/Q39Y/Q99D/R42S/S66Y/T262R/V115G/W38E); assay: biochemical; format: binding; details: read-out: binds with good affinity to DR11
[22] = molecular target: T3, HLA-DR15 (DRB1*1501) (Homo sapiens, UniProt P01903+P01911); assay: biochemical; format: binding; details: DRB1*1501; read-out: binds with good affinity to DR15
T3 construct: endogenous in cells; host or cells: homozygous EBV-transformed human B lymphocyte lines; immunopurified with antibody L243

[23] = molecular target: T4, HLA-DRB3 (DRB3*0101) (Homo sapiens, UniProt P01903+P79483); assay: HLA II/peptide binding assay, HLA-DRB3; details: read-out: binds with good affinity to DRB3
T4 construct: endogenous in cells; host or cells: homozygous EBV-transformed human B lymphocyte lines; immunopurified with antibody L243

[24] = molecular target: HLA-DP401 (DPB1*0401) (Homo sapiens, UniProt P04440+P20036); assay: biochemical; format: binding; details: DP*0401; read-out: binds with good affinity to DP401
[25] = tested on: DR1; assay: DR1; remark: listed apart in the source
[26] = tested on: DP401; assay: DP401; remark: listed apart in the source
[27] = tested on: DP402; assay: DP402

Sequence of HLA-DR11 (DRB1*1101) (P01903 26-254 limits assumed, other chains not shown): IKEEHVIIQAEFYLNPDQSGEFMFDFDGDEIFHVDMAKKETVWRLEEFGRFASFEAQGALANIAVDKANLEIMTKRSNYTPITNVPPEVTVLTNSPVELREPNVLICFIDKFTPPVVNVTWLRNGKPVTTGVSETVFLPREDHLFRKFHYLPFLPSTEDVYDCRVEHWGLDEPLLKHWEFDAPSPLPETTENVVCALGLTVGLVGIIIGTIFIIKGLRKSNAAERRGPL

## CC(C)C[C@H](NC(=O)[C@H](C)NC(=O)[C@H](CCCNC(=N)N)NC(=O)[C@H](C)N)C(=O)N[C@@H](C)C(=O)N[C@@H](Cc1c[nH]cn1)C(=O)NCC(=O)N[C@H](C(=O)N[C@@H](CCCNC(=N)N)C(=O)N[C@H](C(=O)N[C@@H](CC(C)C)C(=O)N[C@@H](CCC(=O)O)C(=O)N[C@@H](CC(=O)O)C(=O)NCC(=O)N[C@H](C(=O)N[C@@H](CC(N)=O)C(=O)N[C@@H](Cc1ccc(O)cc1)C(=O)N[C@@H](C)C(=O)N[C@H](C(=O)NCC(=O)N[C@@H](CC(N)=O)C(=O)N[C@@H](CC(C)C)C(=O)N1CCC[C@H]1C(=O)NCC(=O)N[C@@H](C)C(=O)N[C@@H](CO)C(=O)O)[C@@H](C)O)C(C)C)C(C)C)C(C)C [6C 148-173] (H-ARALAHGVRVLEDGVNYATGNLPGAS-OH; N-terminus and C-terminus assumed)
[1]; competition with biotinylated tracer HA 306-318, read-out: IC50, binding to HLA-DR1
  pIC50: 5.00
[1]; legend of FIG. 4
  affinity for HLA-DR1 (in words): low affinity
[2]
  immune response (splenocyte proliferation index): do not induce any effect
[3]
  pIC50: 5.46
[4]
  pIC50: 7.52
[5]
  pIC50: 5.50
[6]
  pIC50: 5.02
[7]
  pIC50: 5.18
[8]
  pIC50: 5.32
[9]
  pIC50: 4.56
[10]
  pIC50: 5.36
[11]
  pIC50: 5.36

## GAPLGGAARALAHG [C 141-155]
[12]
  pIC50: 5.46
[13]
  pIC50: 4.10
[14]
  pIC50: 4.93
[15]
  pIC50: 5.08
[16]
  pIC50: 5.02
[17]
  pIC50: 6.31
[18]
  pIC50: 4.30

## CC[C@H](C)[C@H](NC(=O)[C@H](CC(N)=O)NC(=O)[C@@H]1CCCN1C(=O)[C@@H](N)CC(=O)O)C(=O)N[C@@H](CCCNC(=N)N)C(=O)N[C@H](C(=O)NCC(=O)N[C@H](C(=O)N[C@@H](CCCNC(=N)N)C(=O)N[C@H](C(=O)N[C@H](C(=O)N[C@H](C(=O)N[C@H](C(=O)NCC(=O)N[C@@H](CO)C(=O)N1CCC[C@H]1C(=O)N[C@H](C(=O)N[C@H](C(=O)N[C@@H](Cc1ccc(O)cc1)C(=O)N[C@@H](CO)C(=O)N[C@H](C(=O)N[C@@H](Cc1ccc(O)cc1)C(=O)NCC(=O)N[C@@H](CCCCN)C(=O)N[C@@H](Cc1ccccc1)C(=O)N[C@@H](CC(C)C)C(=O)N[C@@H](C)C(=O)N[C@@H](CC(=O)O)C(=O)NCC(=O)NCC(=O)O)[C@@H](C)O)[C@@H](C)O)[C@@H](C)CC)[C@@H](C)O)[C@@H](C)O)[C@@H](C)O)[C@@H](C)O)C(C)C)[C@@H](C)O [19N 1275-1304] (H-DPNIRTGVRTTTTGSPITYSTYGKFLADGG-OH; N-terminus and C-terminus assumed)
[1]; read-out: binds with good affinity to DR1
  pIC50: > 6.00
[19]
  pIC50: > 6.00
[20]
  pIC50: > 6.00
[21]
  pIC50: > 6.00
[22]
  pIC50: > 6.00
[23]
  pIC50: > 6.00
[24]
  pIC50: > 6.00
[25]
  pIC50: 6.82
[3]
  pIC50: < 4.00
[4]
  pIC50: 6.30
[5]
  pIC50: 6.95
[6]
  pIC50: < 4.00
[7]
  pIC50: 6.26
[8]
  pIC50: 6.82
[9]
  pIC50: 5.46
[10]
  pIC50: 5.89
[26]
  pIC50: 6.26
[27]
  pIC50: 5.74
